How the values were obtained:
Type in all cases: in vivo
[1] = system: pigweed (Amaranthus retroflexus); assay: Test B pre-/postemergence plant response
How it was run: (§1)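 Steps: plant seeds in loam soil–sand mix; spray soil preemergence, and in parallel spray 2–10 cm one- to two-leaf plants postemergence; hold ~10 days in greenhouse; visually rate injury against untreated controls (0 = no effect, 100 = complete control).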

corn (Zea mays) [2] = assay: Test B pre-/postemergence plant response
How it was run: as §1

[3] = system: giant foxtail (Setaria faberii); assay: Test B pre-/postemergence plant response
How it was run: as §1

[4] = system: barnyardgrass (Echinochloa crus-galli); assay: Test B pre-/postemergence plant response
How it was run: as §1

[5] = system: wheat (Triticum aestivum); assay: Test B pre-/postemergence plant response
How it was run: as §1

[6] = system: lambsquarters (Chenopodium album); assay: Test D pre-/postemergence plant response; conditions: Postemergence
How it was run: (§2)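 0 = no effect, 100 = complete control: plants were scored this way by visual comparison with controls 13 to 15 days post-treatment. Application was preemergence to sown loam/sand pots or postemergence to 2–18 cm seedlings in peat-based mix.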

[7] = system: pigweed (Amaranthus retroflexus); assay: Test D pre-/postemergence plant response; conditions: Postemergence
How it was run: as §2

[8] = system: galium (catchweed bedstraw, Galium aparine); assay: Test D pre-/postemergence plant response; conditions: Postemergence; for Galium plant response rating: 31 g ai/ha, scale 0 to 100 (0 no effect, 100 complete control); for Plant response rating, Galium: scale 0 to 100, 0 no effect, 100 complete control
How it was run: as §2

corn (Zea mays) [9] = assay: Test D pre-/postemergence plant response; conditions: Postemergence; for Corn plant response rating: scale 0 to 100 (0 no effect, 100 complete control); for Plant response rating, Corn: scale 0 to 100, 0 no effect, 100 complete control
How it was run: as §2

[10] = system: waterhemp (common waterhemp, Amaranthus rudis); assay: Test D pre-/postemergence plant response; conditions: Postemergence
How it was run: as §2

[11] = system: ragweed (common ragweed, Ambrosia elatior); assay: Test D pre-/postemergence plant response; conditions: Postemergence
How it was run: as §2

[12] = system: giant foxtail (Setaria faberii); assay: Test D pre-/postemergence plant response; conditions: Postemergence; for Foxtail, Giant plant response rating: scale 0 to 100 (0 no effect, 100 complete control); for Plant response rating, Foxtail, Giant: scale 0 to 100, 0 no effect, 100 complete control
How it was run: as §2

[13] = system: barnyardgrass (Echinochloa crus-galli); assay: Test D pre-/postemergence plant response; conditions: Postemergence; for Barnyardgrass plant response rating: scale 0 to 100 (0 no effect, 100 complete control); for Plant response rating, Barnyardgrass: scale 0 to 100, 0 no effect, 100 complete control
How it was run: as §2

[14] = system: morningglory (Ipomoea coccinea); assay: Test D pre-/postemergence plant response; conditions: Postemergence
How it was run: as §2

[15] = system: Italian ryegrass (Lolium multiflorum); assay: Test D pre-/postemergence plant response; conditions: Postemergence
How it was run: as §2

[16] = system: blackgrass (Alopecurus myosuroides); assay: Test D pre-/postemergence plant response; conditions: Postemergence; for Blackgrass plant response rating: scale 0 to 100 (0 no effect, 100 complete control); for Plant response rating, Blackgrass: scale 0 to 100, 0 no effect, 100 complete control
How it was run: as §2

[17] = 125 g ai/ha, postemergence, 0 to 100 scale, 0 no effect, 100 complete control
[18] = Postemergence, 500 g ai/ha, 0 to 100 scale (0 no effect, 100 complete control)
[19] = Preemergence, 125 g ai/ha, 0 to 100 scale (0 no effect, 100 complete control)
[20] = Preemergence, 500 g ai/ha, 0 to 100 scale where 0 is no effect and 100 is complete control
[21] = 31 g ai/ha, scale 0 to 100 (0 no effect, 100 complete control)
[22] = 62 g ai/ha, scale 0 to 100, 0 no effect, 100 complete control
[23] = 31 g ai/ha, Preemergence, 0 to 100 scale where 0 is no effect and 100 is complete control
[24] = Postemergence, 31 g ai/ha, 0 to 100 scale (0 no effect, 100 complete control)
[25] = 125 g ai/ha, scale 0 to 100, 0 no effect, 100 complete control

Structure (SMILES): FC(F)(F)c1cc(-c2c(I)cccc2Oc2ncc(Cl)cn2)no1 [Compound 156]
- Plant response rating, Pigweed [1, 17]: 90
- Plant response rating, Pigweed [1, 18]: 100
- Pigweed plant response rating [1, 19]: 80
- Plant response rating, Pigweed [1, 20]: 100
- Plant response rating, Corn (corn (Zea mays) [2]; [17]): 20
- Plant response rating, Corn (corn (Zea mays) [2]; [18]): 40
- Plant response rating, Foxtail, Giant [3, 17]: 20
- Plant response rating, Foxtail, Giant [3, 18]: 90
- Foxtail, Giant plant response rating [3, 19]: 20
- Plant response rating, Foxtail, Giant [3, 20]: 80
- Plant response rating, Barnyardgrass [4, 17]: 0
- Plant response rating, Barnyardgrass [4, 18]: 20
- Barnyardgrass plant response rating [4, 19]: 0
- Plant response rating, Barnyardgrass [4, 20]: 20
- Plant response rating, Wheat [5, 17]: 20
- Plant response rating, Wheat [5, 18]: 30
- Plant response rating (scale 0 to 100), Lambsquarters ([6]; 8 g ai/ha): 10
- Lambsquarters plant response rating [6, 21]: 35
- Plant response rating, Lambsquarters [6, 22]: 40
- Plant response rating (scale 0 to 100), Pigweed ([7]; 8 g ai/ha): 15
- Pigweed plant response rating [7, 21]: 60
- Plant response rating, Pigweed [7, 22]: 75
- Plant response rating (scale 0 to 100), Galium ([8]; 8 g ai/ha): 20
- Galium plant response rating [8]: 60
- Plant response rating, Galium ([8]; 62 g ai/ha): 70
- Plant response rating (scale 0 to 100), Corn (corn (Zea mays) [9]; 8 g ai/ha): 0
- Corn plant response rating (corn (Zea mays) [9]; 16 g ai/ha): 5
- Corn plant response rating (corn (Zea mays) [9]; 31 g ai/ha): 5
- Plant response rating, Corn (corn (Zea mays) [9]; 62 g ai/ha): 5
- Plant response rating (scale 0 to 100), Waterhemp ([10]; 8 g ai/ha): 5
- Waterhemp plant response rating [10, 21]: 70
- Plant response rating, Waterhemp [10, 22]: 90
- Plant response rating (scale 0 to 100), Ragweed ([11]; 8 g ai/ha): 0
- Ragweed plant response rating [11, 21]: 10
- Plant response rating, Ragweed [11, 22]: 15
- Plant response rating (scale 0 to 100), Foxtail, Giant ([12]; 8 g ai/ha): 0
- Foxtail, Giant plant response rating ([12]; 16 g ai/ha): 5
- Foxtail, Giant plant response rating ([12]; 31 g ai/ha): 10
- Plant response rating, Foxtail, Giant ([12]; 62 g ai/ha): 35
- Plant response rating (scale 0 to 100), Barnyardgrass ([13]; 8 g ai/ha): 0
- Barnyardgrass plant response rating ([13]; 16 g ai/ha): 0
- Barnyardgrass plant response rating ([13]; 31 g ai/ha): 0
- Plant response rating, Barnyardgrass ([13]; 62 g ai/ha): 5
- Plant response rating (scale 0 to 100), Morningglory ([14]; 8 g ai/ha): 5
- Morningglory plant response rating [14, 21]: 15
- Plant response rating, Morningglory [14, 22]: 65
- Plant response rating (scale 0 to 100), Ryegrass, Italian ([15]; 8 g ai/ha): 0
- Ryegrass, Italian plant response rating [15, 21]: 0
- Plant response rating, Ryegrass, Italian [15, 22]: 0
- Plant response rating (scale 0 to 100), Blackgrass ([16]; 8 g ai/ha): 0
- Blackgrass plant response rating ([16]; 16 g ai/ha): 0
- Blackgrass plant response rating ([16]; 31 g ai/ha): 5
- Plant response rating, Blackgrass ([16]; 62 g ai/ha): 5

Structure (SMILES): FC(Cl)(Cl)c1cc(-c2ccccc2Oc2ncc(Cl)cn2)no1 [Compound 198]
- Plant response rating, Pigweed [1, 23]: 30
- Plant response rating, Pigweed [1, 17]: 100
- Plant response rating, Pigweed [1, 24]: 100
- Pigweed plant response rating [1, 19]: 100
- Plant response rating, Corn (corn (Zea mays) [2]; [17]): 20
- Plant response rating, Corn (corn (Zea mays) [2]; [24]): 10
- Plant response rating, Foxtail, Giant [3, 23]: 70
- Plant response rating, Foxtail, Giant [3, 17]: 90
- Plant response rating, Foxtail, Giant [3, 24]: 30
- Foxtail, Giant plant response rating [3, 19]: 90
- Plant response rating, Barnyardgrass [4, 23]: 10
- Plant response rating, Barnyardgrass [4, 17]: 50
- Plant response rating, Barnyardgrass [4, 24]: 10
- Barnyardgrass plant response rating [4, 19]: 40
- Plant response rating, Wheat [5, 17]: 10
- Plant response rating, Wheat [5, 24]: 0
- Plant response rating (scale 0 to 100), Lambsquarters ([6]; 16 g ai/ha): 10
- Lambsquarters plant response rating [6, 21]: 55
- Lambsquarters plant response rating [6, 22]: 70
- Plant response rating, Lambsquarters [6, 25]: 75
- Plant response rating (scale 0 to 100), Pigweed ([7]; 16 g ai/ha): 85
- Pigweed plant response rating [7, 21]: 98
- Pigweed plant response rating [7, 22]: 90
- Plant response rating, Pigweed [7, 25]: 100
- Plant response rating (scale 0 to 100), Galium ([8]; 16 g ai/ha): 70
- Galium plant response rating [8]: 75
- Plant response rating, Galium ([8]; 62 g ai/ha): 98
- Plant response rating, Galium ([8]; 125 g ai/ha): 98
- Plant response rating (scale 0 to 100), Corn (corn (Zea mays) [9]; 16 g ai/ha): 5
- Corn plant response rating (corn (Zea mays) [9]; 31 g ai/ha): 10
- Plant response rating, Corn (corn (Zea mays) [9]; 62 g ai/ha): 15
- Plant response rating, Corn (corn (Zea mays) [9]; 125 g ai/ha): 15
- Plant response rating (scale 0 to 100), Waterhemp ([10]; 16 g ai/ha): 85
- Waterhemp plant response rating [10, 21]: 85
- Waterhemp plant response rating [10, 22]: 95
- Plant response rating, Waterhemp [10, 25]: 98
- Plant response rating (scale 0 to 100), Ragweed ([11]; 16 g ai/ha): 30
- Ragweed plant response rating [11, 21]: 55
- Ragweed plant response rating [11, 22]: 55
- Plant response rating, Ragweed [11, 25]: 60
- Plant response rating (scale 0 to 100), Foxtail, Giant ([12]; 16 g ai/ha): 10
- Foxtail, Giant plant response rating ([12]; 31 g ai/ha): 15
- Plant response rating, Foxtail, Giant ([12]; 62 g ai/ha): 15
- Plant response rating, Foxtail, Giant ([12]; 125 g ai/ha): 25
- Plant response rating (scale 0 to 100), Barnyardgrass ([13]; 16 g ai/ha): 10
- Barnyardgrass plant response rating ([13]; 31 g ai/ha): 10
- Plant response rating, Barnyardgrass ([13]; 62 g ai/ha): 20
- Plant response rating, Barnyardgrass ([13]; 125 g ai/ha): 35
- Plant response rating (scale 0 to 100), Morningglory ([14]; 16 g ai/ha): 55
- Morningglory plant response rating [14, 21]: 55
- Morningglory plant response rating [14, 22]: 80
- Plant response rating, Morningglory [14, 25]: 85
- Plant response rating (scale 0 to 100), Ryegrass, Italian ([15]; 16 g ai/ha): 0
- Ryegrass, Italian plant response rating [15, 21]: 0
- Ryegrass, Italian plant response rating [15, 22]: 10
- Plant response rating, Ryegrass, Italian [15, 25]: 10
- Plant response rating (scale 0 to 100), Blackgrass ([16]; 16 g ai/ha): 5
- Blackgrass plant response rating ([16]; 31 g ai/ha): 5
- Plant response rating, Blackgrass ([16]; 62 g ai/ha): 10
- Plant response rating, Blackgrass ([16]; 125 g ai/ha): 15
